Reference: article PMC5843698, “Use of QSPR Modeling to Characterize In Vitro Binding of Drugs to a Gut-Restricted Polymer” (Pharmaceutical Research, 2018)
“Also recorded” adds a separate entry of the source. Where a name gives a salt, the structure may show the parent alone.

Key:
[1] = Dose-response in vitro patiromer binding across a range of test drug concentrations; conditions: across a clinically relevant dose range
[2] = In vitro binding assay: free test drug recovered after 3 h incubation with and without patiromer in SGF, acetate buffer or SIF; conditions: for SGF / SIF / AB: QSPR input data; for SGF: test matrix SGF; for SIF: test matrix SIF; for In Vitro Binding (% Drug Recovered) SGF (pH 3): simulated gastric fluid, final pH 3.0; for In Vitro Binding (% Drug Recovered) SGF (pH 3) / In Vitro Binding (% Drug Recovered) SIF (pH 5.9) / In Vitro Binding (% Drug Recovered) Acetate Buffer (pH 4.5): patiromer 25.2 g/L, 3 h, 37°C, geometric mean of 12 replicates; for In Vitro Binding (% Drug Recovered) SIF (pH 5.9): simulated intestinal fluid, final pH 5.9; for In vitro patiromer binding category: strong, weak or non-binding; for AB: test matrix acetate buffer (AB)
[3] = test drug given together with patiromer, healthy volunteers; a drug listed in the table cell = AUC reduced; cited from earlier work
[4] = pKa determination by titration in aqueous solution (UV or pH monitored); conditions: aqueous solution, pKa (B = base), basic group; average of three determinations
[5] = logP determination by titration in octanol/water; conditions: octanol/water
[6] = logD determination (liquid-liquid distribution chromatography, octanol-coated column); conditions: octanol-coated column with octanol-saturated mobile phase

Row | SGF [2] | SIF [2] | In Vitro Binding (% Drug Recovered) SGF (pH 3) [2] | In Vitro Binding (% Drug Recovered) SIF (pH 5.9) [2] | In vitro patiromer binding category [2] | pKa [4] | logP [5] | chromatographic logD ([6]; pH 3) | chromatographic logD ([6]; pH 4.5) | chromatographic logD ([6]; pH 5.9) | Structure (SMILES) | Concentration dependence of in vitro binding to patiromer [1] | AB [2] | In Vitro Binding (% Drug Recovered) Acetate Buffer (pH 4.5) [2] | Binding categories (level of in vitro interaction with patiromer) ([2]; across SGF, AB and SIF test matrices) | AUC reduced when co-administration (lower bound of the 90% CI <80%) [3] | Behaviour of drug in the presence of patiromer and its calcium counter-ion ([2]; in vitro binding assay conditions)
1 | 12.6 | 24.3 | 12.6% | 24.3% | strong binders | – | – | – | – | – | C=C[C@H]1C[N@@]2CC[C@H]1C[C@@H]2[C@@H](O)c1ccnc2ccc(OC)cc12 [Quinidine] | did not show strong concentration dependence | – | – | – | – | –
2 | 36.3 | 28.4 | 36.3% | 28.4% | strong binders | – | – | – | – | – | COc1cc(Cc2cnc(N)nc2N)cc(OC)c1OC [Trimethoprim] | did not show strong concentration dependence | 55.3 | 55.3% | – | – | –
3 | – | – | – | – | – | 8.73 | 3.44 | 3.44 | 3.44 | 3.37 | N[C@@H](Cc1cc(I)c(Oc2cc(I)c(O)c(I)c2)c(I)c1)C(=O)O [Levothyroxine sodium] | – | – | – | – | Ciprofloxacin, 500 mg Levothyroxine, 0.6 mg | precipitated in the presence of patiromer and its calcium counter-ion

Row | Structure (SMILES) | SGF [2] | SIF [2] | In Vitro Binding (% Drug Recovered) SGF (pH 3) [2] | In Vitro Binding (% Drug Recovered) SIF (pH 5.9) [2] | In vitro patiromer binding category [2] | pKa [4] | logP [5] | chromatographic logD ([6]; pH 3) | chromatographic logD ([6]; pH 4.5) | chromatographic logD ([6]; pH 5.9) | Concentration dependence of in vitro binding to patiromer [1] | AB [2] | In Vitro Binding (% Drug Recovered) Acetate Buffer (pH 4.5) [2] | Binding categories (level of in vitro interaction with patiromer) ([2]; across SGF, AB and SIF test matrices) | AUC reduced when co-administration (lower bound of the 90% CI <80%) [3] | Behaviour of drug in the presence of patiromer and its calcium counter-ion ([2]; in vitro binding assay conditions)
4 | CN(C)C(=N)N=C(N)N [Metformin HCl] | 48.9 | 80.2 | 48.9% | 80.2% | weak binder | – | – | – | – | – | – | 81.8 | 81.8% | Weak binder (30–55% bound in one test matrix) | moderate reduction in AUC; also recorded: Metformin, 1000 mg | –
